Experimental findings from PubChem BioAssay (NCI) are described below.

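These data come from cells grown in 96-well plates and exposed to compound for 48 hours at five concentrations. The concentration for full growth arrest is given as TGI.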

Test systems include U251 CNS; SNB-75 CNS; NCI-H522 lung; KM12 colon; RPMI-8226 leukemia; HCT-15 colon; HT29 colon; HCT-116 colon; UO-31 renal; UACC-62 melanoma; HOP-62 NSCLC; HL-60(TB) leukemia; OVCAR-5 ovarian; MOLT-4 leukemia; SF-539 CNS; NCI-H460 lung; HOP-92 NSCLC; LOX IMVI melanoma; DU-145 prostate; MDA-MB-435.
Experiment in all cases: DTP human tumour cell line panel, 48 h

Take `O=c1cc[nH]c(=O)[nH]1`: the TGI (as a rule, the concentration giving total growth inhibition) is more than 1000 µM with U251 CNS; more than 953 µM with SNB-75 CNS; 923 µM with NCI-H522 lung; 846 µM in the assay on KM12 colon; more than 1000 µM in the assay on RPMI-8226 leukemia; more than 1000 µM in the assay with HCT-15 colon. Also, the TGI in the assay with HT29 colon was more than 1000 µM; in the assay on HCT-116 colon, more than 821 µM; in the assay with UO-31 renal it was more than 1000 µM; with UACC-62 melanoma, more than 1000 µM; with HOP-62 NSCLC, more than 872 µM; in the assay with HL-60(TB) leukemia it was more than 1000 µM. Further, the TGI in the assay with OVCAR-5 ovarian was more than 956 µM; in the assay on MOLT-4 leukemia, more than 919 µM; in the assay with SF-539 CNS it was 926 µM; in the assay on NCI-H460 lung, 883 µM; with HOP-92 NSCLC it was more than 1000 µM; in the assay on LOX IMVI melanoma it was 866 µM.

In the case of `CCOc1ncn(-c2ccc(NC(=S)Nc3ncccn3)cc2)n1`, the TGI is more than 100 µM with U251 CNS; more than 100 µM in the assay with SNB-75 CNS; 38.6 µM in the assay with NCI-H522 lung; more than 100 µM in the assay with KM12 colon; more than 100 µM in the assay on RPMI-8226 leukemia; more than 100 µM in the assay with HCT-15 colon. The total growth inhibition concentration (TGI) in the assay with HT29 colon was 25.7 µM; in the assay with DU-145 prostate, more than 100 µM; in the assay with HCT-116 colon, more than 100 µM; with UO-31 renal, 36 µM; in the assay on UACC-62 melanoma it was 91 µM; with HOP-62 NSCLC it was more than 100 µM. Further, the concentration for total growth inhibition (TGI) was 65.2 µM in the assay with HL-60(TB) leukemia; more than 100 µM in the assay on OVCAR-5 ovarian; 57.3 µM in the assay on MOLT-4 leukemia; 33.5 µM in the assay on SF-539 CNS; more than 100 µM in the assay with NCI-H460 lung; 87 µM in the assay with HOP-92 NSCLC. Moreover, the TGI is 37.9 µM with LOX IMVI melanoma and more than 100 µM in the assay on MDA-MB-435.

Take `NC(CCCCCP(=O)(c1ccccc1)C1C=CC=CC1)C(=O)O` (configuration not stated): the TGI in the assay on U251 CNS, in the assay with SNB-75 CNS, with NCI-H522 lung, in the assay with KM12 colon, with RPMI-8226 leukemia and in the assay with HCT-15 colon was more than 100 µM in each case. In addition, the TGI with HT29 colon, in the assay on DU-145 prostate, in the assay with HCT-116 colon, with UO-31 renal, in the assay with UACC-62 melanoma and in the assay on HL-60(TB) leukemia was more than 100 µM each time. Also, the TGI in the assay with OVCAR-5 ovarian, in the assay on MOLT-4 leukemia, in the assay on SF-539 CNS, in the assay on NCI-H460 lung, in the assay with HOP-92 NSCLC and in the assay with LOX IMVI melanoma was more than 100 µM in each case. The same molecule gave a TGI with MDA-MB-435 of more than 100 µM.
